Laboratory results: patent US6358885B1, “Substituted phenylheterocyclic herbicides” (Mississippi State University, priority 1992, dated 2002)

Key:
velvetleaf = assay: Test B preemergence/postemergence greenhouse plant response rating 0 to 10; type: in vivo, Abutilon theophrasti; details: 0 to 10 scale
Summary of the method: (§1)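 Test chemicals, dissolved in a non-phytotoxic solvent, were applied to soil at planting and, at the same time, over foliage of seedlings at the one to four leaf stage.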

blackgrass = assay: Test C preemergence/postemergence greenhouse plant response rating 0 to 100; type: in vivo, Alopecurus myosuroides; details: POSTEMERGENCE
Summary of the method: (§2)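 Compounds in non-phytotoxic solvent applied preemergence to sandy loam one day after planting, postemergence at the 1–4 leaf stage, or to ~2.5 cm floodwater over silt loam.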

wild buckwheat = assay: Test B preemergence/postemergence greenhouse plant response rating 0 to 10; type: in vivo, Polygonum convolvulus; details: 0 to 10 scale
Summary of the method: as §1

chickweed [1] = assay: as above; type: in vivo, Stellaria media; details: POSTEMERGENCE
Summary of the method: as §1

soybean [2] = assay: Test C preemergence/postemergence greenhouse plant response rating 0 to 100; type: in vivo, Glycine max; details: POSTEMERGENCE
Summary of the method: as §2

cocklebur = assay: Test B preemergence/postemergence greenhouse plant response rating 0 to 10; type: in vivo, Xanthium pensylvanicum; details: for Plant response rating, Cocklebur: 0 to 10 scale
Summary of the method: as §1

ryegrass = assay: Test C preemergence/postemergence greenhouse plant response rating 0 to 100; type: in vivo, Lolium multiflorum; details: POSTEMERGENCE
Summary of the method: as §2

rape = assay: as above; type: in vivo, Brassica napus; details: POSTEMERGENCE
Summary of the method: as §2

pigweed = assay: as above; type: in vivo, Amaranthusretroflexus; details: POSTEMERGENCE
Summary of the method: as §2

umbrella sedge = assay: Test C flood test plant response rating 0 to 100; type: in vivo, Cyperus difformis
Summary of the method: as §2

bedstraw = assay: Test B preemergence/postemergence greenhouse plant response rating 0 to 10; type: in vivo, Galium aparine; details: POSTEMERGENCE
Summary of the method: as §1

soybean [3] = assay: as above; type: in vivo, Glycine max; details: 0 to 10 scale
Summary of the method: as §1

barley [4] = assay: Test C preemergence/postemergence greenhouse plant response rating 0 to 100; type: in vivo, Hordeum vulgare; details: POSTEMERGENCE
Summary of the method: as §2

sorghum = assay: Test B preemergence/postemergence greenhouse plant response rating 0 to 10; type: in vivo, Sorghum bicolor; details: 0 to 10 scale
Summary of the method: as §1

chickweed [5] = assay: Test C preemergence/postemergence greenhouse plant response rating 0 to 100; type: in vivo, Stellaria media; details: POSTEMERGENCE
Summary of the method: as §2

sugar beet = assay: Test B preemergence/postemergence greenhouse plant response rating 0 to 10; type: in vivo, Beta vulgaris; details: 0 to 10 scale
Summary of the method: as §1

morningglory = assay: as above; type: in vivo, Ipomoea hederacea; details: 0 to 10 scale
Summary of the method: as §1

barley [6] = assay: as above; type: in vivo, Hordeum vulgare; details: for Plant response rating, Barley: 0 to 10 scale
Summary of the method: as §1

For `CC(C)N1C(=O)COc2cc(F)c(-c3nn4c(c3Cl)CCCC4)cc21` [Compound 31], the “Plant response rating, Velvetleaf” value (velvetleaf; POSTEMERGENCE, Rate 10 g/ha) was 10, the “Plant response rating, Velvetleaf” value (velvetleaf; POSTEMERGENCE, Rate 50 g/ha) was 10 and the “Plant response rating, Velvetleaf” value (velvetleaf; PREEMERGENCE, Rate 50 g/ha) was 9. For the same compound, the “Plant response rating, Blackgrass” value (blackgrass; 62 g/ha, 0 to 100 scale) was 40, the “Plant response rating (0 to 100), Blackgrass” value (blackgrass; Rate 1 g/ha) was 10 and the “Plant response rating (0 to 100), Blackgrass” value (blackgrass; Rate 4 g/ha) was 20. For the same compound, the “Plant response rating (0 to 100), Blackgrass” value (blackgrass; Rate 16 g/ha) was 30, the “Plant response rating, Wild buckwheat” value (wild buckwheat; POSTEMERGENCE, Rate 10 g/ha) was 10 and the “Plant response rating, Wild buckwheat” value (wild buckwheat; POSTEMERGENCE, Rate 50 g/ha) was 10. For the same compound, the “Plant response rating, Wild buckwheat” value (wild buckwheat; PREEMERGENCE, Rate 50 g/ha) was 10, the “Plant response rating, Chickweed” value (chickweed [1]; Rate 10 g/ha, 0 to 10 scale) was 10 and the “Plant response rating (0 to 10 scale), Chickweed” value (chickweed [1]; Rate 50 g/ha) was 10. The “Plant response rating, Soybean” value (soybean [2]; 62 g/ha, 0 to 100 scale) was 80, the “Plant response rating (0 to 100), Soybean” value (soybean [2]; Rate 1 g/ha) was 30 and the “Plant response rating (0 to 100), Soybean” value (soybean [2]; Rate 4 g/ha) was 40. For the same compound, the “Plant response rating (0 to 100), Soybean” value (soybean [2]; Rate 16 g/ha) was 60, the “Plant response rating, Cocklebur” value (cocklebur; POSTEMERGENCE, Rate 10 g/ha) was 9 and the “Plant response rating (0 to 10 scale), Cocklebur” value (cocklebur; POSTEMERGENCE, Rate 50 g/ha) was 9. The “Plant response rating, Cocklebur” value (cocklebur; PREEMERGENCE, Rate 10 g/ha) was 0, the “Plant response rating, Cocklebur” value (cocklebur; PREEMERGENCE, Rate 50 g/ha) was 3 and the “Plant response rating Ryegrass” value (ryegrass; 62 g/ha, 0 to 100 scale) was 40. For the same compound, the “Plant response rating (0 to 100), Ryegrass” value (ryegrass; Rate 1 g/ha) was 10, the “Plant response rating (0 to 100), Ryegrass” value (ryegrass; Rate 4 g/ha) was 20 and the “Plant response rating (0 to 100), Ryegrass” value (ryegrass; Rate 16 g/ha) was 30. For the same compound, the “Plant response rating, Rape” value (rape; 62 g/ha, 0 to 100 scale) was 100, the “Plant response rating (0 to 100), Rape” value (rape; Rate 1 g/ha) was 30 and the “Plant response rating (0 to 100), Rape” value (rape; Rate 4 g/ha) was 60. For the same compound, the “Plant response rating (0 to 100), Rape” value (rape; Rate 16 g/ha) was 95, the “Plant response rating Pigweed” value (pigweed; 62 g/ha, 0 to 100 scale) was 100 and the “Plant response rating (0 to 100), Pigweed” value (pigweed; Rate 1 g/ha) was 95. The “Plant response rating (0 to 100), Pigweed” value (pigweed; Rate 4 g/ha) was 100, the “Plant response rating (0 to 100), Pigweed” value (pigweed; Rate 16 g/ha) was 100 and the “Plant response rating (0 to 100), Umbrella sedge” value (umbrella sedge; POSTEMERGENCE section, flood test, Rate 1 g/ha) was 0. For the same compound, the “Plant response rating (0 to 100), Umbrella sedge” value (umbrella sedge; POSTEMERGENCE section, flood test, Rate 4 g/ha) was 0, the “Plant response rating (0 to 100), Umbrella sedge” value (umbrella sedge; Rate 16 g/ha, under POSTEMERGENCE head (flood test species)) was 0 and the “Plant response rating Umbrella sedge” value (umbrella sedge; flood test species listed under POSTEMERGENCE, 62 g/ha, 0 to 100 scale) was 80. The “Plant response rating, Bedstraw” value (bedstraw; Rate 10 g/ha, 0 to 10 scale) was 10, the “Plant response rating (0 to 10 scale), Bedstraw” value (bedstraw; Rate 50 g/ha) was 10 and the “Plant response rating, Soybean” value (soybean [3]; POSTEMERGENCE, Rate 10 g/ha) was 7. The “Plant response rating, Soybean” value (soybean [3]; POSTEMERGENCE, Rate 50 g/ha) was 7, the “Plant response rating, Soybean” value (soybean [3]; PREEMERGENCE, Rate 50 g/ha) was 0 and the “Plant response rating Barley Igri” value (barley [4]; 62 g/ha, 0 to 100 scale) was 50. For the same compound, the “Plant response rating (0 to 100), Barley Igri” value (barley [4]; Rate 1 g/ha) was 20, the “Plant response rating (0 to 100), Barley Igri” value (barley [4]; Rate 4 g/ha) was 30 and the “Plant response rating (0 to 100), Barley Igri” value (barley [4]; Rate 16 g/ha) was 40. The “Plant response rating, Sorghum” value (sorghum; POSTEMERGENCE, Rate 10 g/ha) was 5, the “Plant response rating, Sorghum” value (sorghum; POSTEMERGENCE, Rate 50 g/ha) was 4 and the “Plant response rating, Sorghum” value (sorghum; PREEMERGENCE, Rate 50 g/ha) was 0. The “Plant response rating, Chickweed” value (chickweed [5]; 62 g/ha, 0 to 100 scale) was 90, the “Plant response rating (0 to 100), Chickweed” value (chickweed [5]; Rate 4 g/ha) was 20 and the “Plant response rating (0 to 100), Chickweed” value (chickweed [5]; Rate 16 g/ha) was 80. For the same compound, the “Plant response rating, Sugar beet” value (sugar beet; POSTEMERGENCE, Rate 10 g/ha) was 10, the “Plant response rating, Sugar beet” value (sugar beet; POSTEMERGENCE, Rate 50 g/ha) was 10 and the “Plant response rating, Sugar beet” value (sugar beet; PREEMERGENCE, Rate 50 g/ha) was 10. For the same compound, the “Plant response rating, Morningglory” value (morningglory; POSTEMERGENCE, Rate 10 g/ha) was 9, the “Plant response rating, Morningglory” value (morningglory; POSTEMERGENCE, Rate 50 g/ha) was 10 and the “Plant response rating, Morningglory” value (morningglory; PREEMERGENCE, Rate 50 g/ha) was 5. For the same compound, the “Plant response rating, Barley” value (barley [6]; POSTEMERGENCE, Rate 10 g/ha) was 5, the “Plant response rating (0 to 10 scale), Barley” value (barley [6]; POSTEMERGENCE, Rate 50 g/ha) was 5 and the “Plant response rating, Barley” value (barley [6]; PREEMERGENCE, Rate 10 g/ha) was 0. The “Plant response rating, Barley” value (barley [6]; PREEMERGENCE, Rate 50 g/ha) was 0.
